Like-named read-outs stand apart in the source and are kept apart here.
Tests used:
[1] = system: Alliiroseovarius crassostreae (DSM 16950); assay: Final growth yield on sole N or P source, DSM 16950; type: cell-based
Procedure: (§1) All strains used in this work were axenic. Pseudomonas strains were maintained on Luria Bertani (LB) agar (1.5% w/v) medium at 30 °C. Stappia stellulata and the Roseobacter strains were maintained on Marine Broth agar (1.5% w/v) medium at 30 °C. […] For all growth and proteomics experiments cultures were grown in an adapted minimal A medium[44] using Na-Succinate (20 mM) as the sole carbon source and, where applicable, 10 mM NH4Cl was added as the sole N source. 2AEP and KH2PO4 were added to a final concentration of 100 µM or 1.5 mM as specified in the text and figure legends. Pseudomonas strains were pre-cultured in minimal medium A containing 100 µM Pi and 1.5 mM NH4Cl to ensure adequate growth while minimising the potential for carryover of residual nutrients into experimental cultures. Culture experiments were performed using a FLUOStar Omega 96-well plate reader using Sarstedt 96-well plates incubated at 30°C, shaking at 200 rpm. […] For all other growth and proteomics experiments these marine bacteria were grown in Sea Salts media, with Pi buffer replaced by HEPES buffer. The method used for quantifying extracellular Pi is detailed in the Supplementary Materials.
(§2) Table S1 Final growth yields (mean OD540 ± standard deviation) of Stappia stellulata (DSM 5886), Alliiroseovarius crassostreae (DSM 16950), Alliiroseovarius sediminilitoris (DSM 29439), Thalassobius aestuarii (DSM 15283), and Shimia marina (DSM26895) on 2AEP as sole N or P source with corresponding negative and positive controls. All conditions were performed in triplicate.

[2] = system: Stappia stellulata (DSM 5886); assay: Final growth yield on sole N or P source, DSM 5886; type: cell-based
Procedure: as §1, §2

Shimia marina (DSM26895) = assay: Final growth yield on sole N or P source, DSM 26895; type: cell-based
Procedure: as §1, §2

[3] = system: Alliiroseovarius sediminilitoris (DSM 29439); assay: Final growth yield on sole N or P source, DSM 29439; type: cell-based
Procedure: as §1, §2

[4] = system: Thalassobius aestuarii (DSM 15283); assay: Final growth yield on sole N or P source, DSM 15283; type: cell-based
Procedure: as §1, §2

E. coli PhnD = settings: read-out: Kd (μM) PhnD Ec, cited from earlier work
S. stellulata AepX = assay: Microscale thermophoresis ligand binding of recombinant S. stellulata AepX; parameters: species or system Stappia stellulata; settings: for Kd: read-out: Kd (μM) AepX Ss
Procedure: Finally, we determined the substrate specificity of recombinant S. stellulata AepX towards 2AEP and other (alkyl)phosphonates using microscale thermophoresis[53],[54].
Recombinant AepX was over-produced and purified to homogeneity using methods described in[53]. Binding affinity was determined by microscale thermophoresis using a Monolith NT.115 instrument (NanoTemper Technologies GmbT, Germany) following the protocols described in[53],[54]. A detailed protocol is outlined in the Supplementary Materials. […]
pET21a::aepXSs was sequence verified by automated DNA sequencing (Eurofins, Germany) and introduced to E. coli BL21(DE3) for over-production of recombinant AepX with a C-terminal […]
E. coli BL21(DE3) harbouring pET21a::aepXSs was grown in LB broth with 100 µg mL-1 ampicillin in a culture volume of 1 L contained within a 2 L baffled flask. […]
The binding affinity of AepX for phosphonate ligands was determined using Microscale Thermophoresis (MST) with a Monolith NT.115 instrument (NanoTemper Technologies, Germany).
AepX (100 nM) was labelled with 2nd Generation RED-tris-NTA dye (Nanotemper Technologies, Germany) in 20 mM HEPES pH 7.5 with 200 mM NaCl and 0.005% (v/v) Tween-20 (MST buffer) according to the manufacturer’s instructions. […] 4 µL of each protein-ligand mixture was loaded into Monolith NT.115 Premium Capillaries (Nanotemper Technologies, Germany) and thermophoresis was measured at 22 °C for 22 s with 60 % LED power and High MST power. Data from at least two independent titrations were combined and analysed using the MO.Affinity Analysis software version 2.3 (Nanotemper Technologies, Germany), using the early thermophoresis data at 1 – 2.5 seconds in the experiment for analysis. […]
Figure S7. Binding affinities for selected phosphonates by the Stappia stellulata AepX substrate binding protein determined by microscale thermophoresis. […]

[5] = system: Pseudomonas putida BIRD-1; assay: Growth of P. putida BIRD-1 on 2AEP; type: cell-based
Procedure: All strains used in this work were axenic. Pseudomonas strains were maintained on Luria Bertani (LB) agar (1.5% w/v) medium at 30 °C. […] For all growth and proteomics experiments cultures were grown in an adapted minimal A medium[44] using Na-Succinate (20 mM) as the sole carbon source and, where applicable, 10 mM NH4Cl was added as the sole N source. 2AEP and KH2PO4 were added to a final concentration of 100 µM or 1.5 mM as specified in the text and figure legends. Pseudomonas strains were pre-cultured in minimal medium A containing 100 µM Pi and 1.5 mM NH4Cl to ensure adequate growth while minimising the potential for carryover of residual nutrients into experimental cultures. Culture experiments were performed using a FLUOStar Omega 96-well plate reader using Sarstedt 96-well plates incubated at 30°C, shaking at 200 rpm.

## orthophosphate [Pi]
[1]
  Final growth yield (mean OD540 ± standard deviation), sole P source: 0.90±0.018 OD540
[2]
  Final growth yield (mean OD540 ± standard deviation), sole P source: 1.01±0.07 OD540
Shimia marina (DSM26895)
  Final growth yield (mean OD540 ± standard deviation), sole P source: 1.045±0.020 OD540
[3]
  Final growth yield (mean OD540 ± standard deviation), sole P source: 1.100±0.037 OD540
[4]
  Final growth yield (mean OD540 ± standard deviation), sole P source: 1.003±0.030 OD540

## NCP(=O)(O)O [Aminomethylphosphonate]
E. coli PhnD; E. coli PhnD, previous studies
  Kd: 16.6 µM
S. stellulata AepX; microscale thermophoresis, recombinant S. stellulata AepX, 22 °C
  Kd: 4490 ± 808 µM

## ammonium [NH4]
[1]
  Final growth yield (mean OD540 ± standard deviation), sole N source: 0.776±0.044 OD540
[2]
  Final growth yield (mean OD540 ± standard deviation), sole N source: 0.680±0.016 OD540
Shimia marina (DSM26895)
  Final growth yield (mean OD540 ± standard deviation), sole N source: 0.397±0.035 OD540
[3]
  Final growth yield (mean OD540 ± standard deviation), sole N source: 0.257±0.004 OD540

## NCCP(=O)(O)O [2-Aminoethylphosphonate, 2-aminoethylphosphonate]
[5]
  Growth on 2AEP as sole P, sole N or sole N and sole P source: capable of growth
[1]
  Final growth yield (mean OD540 ± standard deviation), sole N source: 0.535±0.039 OD540
  Final growth yield (mean OD540 ± standard deviation), sole P source: 1.050±0.018 OD540
E. coli PhnD
  Kd: 0.05 to 0.1 µM
[2]
  Final growth yield (mean OD540 ± standard deviation), sole N source: 0.816±0.080 OD540
  Final growth yield (mean OD540 ± standard deviation), sole P source: 0.980±0.005 OD540
Shimia marina (DSM26895)
  Final growth yield (mean OD540 ± standard deviation), sole N source: 0.347±0.004 OD540
  Final growth yield (mean OD540 ± standard deviation), sole P source: 0.827±0.013 OD540
S. stellulata AepX
  Kd of AepX in words: nanomolar range
  Kd: 0.023 ± 0.004 µM
[3]
  Final growth yield (mean OD540 ± standard deviation), sole N source: 0.239±0.008 OD540
  Final growth yield (mean OD540 ± standard deviation), sole P source: 0.748±0.019 OD540
[4]
  Final growth yield (mean OD540 ± standard deviation), sole N source: 0.487±0.020 OD540
  Final growth yield (mean OD540 ± standard deviation), sole P source: 0.869±0.094 OD540

— publication PMC8316502 (Nature Communications, 2021)
